Data taken from patent US20110268789A1, “USE OF PITUITARY ADENYLATE CYCLASE-ACTIVATING POLYPEPTIDE (PACAP) AND PACAP ANALOGS AS ADJUNCTIVE TREATMENTS WITH ANTICANCER AGENTS” (priority 2008, published 2011).

Tests used:
[1] = test system: Four-vessel occlusion in the rat; conditions: cited from earlier work
[2] = test system: light-chain immunoglobulin-secreting human myeloma cells; assay: Carmustine-induced apoptotic cell death of myeloma cells; type: cell-based
Method: (§1) The light-chain immunoglobulin-secreting human myeloma cells were cultured in RPMI 1640 medium supplemented with 10% non-inactivated fetal bovine serum and 0.05 mM 2-mercaptoethanol. The effects of PACAP38, and [Ala^22]PACAP38 on apoptotic cell death was assessed by the quantitative determination of cytoplasmic histone-associated DNA-fragmentation (mono- and oligonucleosomes) after exposure to carmustine for 48 hours. Each value represents the mean plus/minus the standard deviation of three determinations. **p<0.01 and *p<0.05 compared to the carmustine-treated (control) cells.

[3] = test system: human erythroleukemia cells; assay: Thalidomide-induced apoptotic cell death of erythroleukemia cells; type: cell-based
Method: The human myeloid leukemia cells were cultured in RPMI 1640 medium supplemented with 10% non-inactivated fetal bovine serum. The effects of PACAP38, [D-Ser^2]PACAP38 and VIP on apoptotic cell death was assessed by the quantitative determination of cytoplasmic histone-associated DNA-fragmentation (mono- and oligonucleosomes) after exposure to thalidomide for 48 hours. Each value represents the mean plus/minus the standard deviation of four determinations. **p<0.01 and *p<0.05 compared to the thalidomide-treated (control) cells.

[4] = test system: Male C57BL/6 mice; assay: Cisplatin-induced nephrotoxicity in mice; type: in vivo, mouse; conditions: cisplatin 20 mg/kg i.p.
Method: (§2) Male C57BL/6 mice were given a single intraperitoneal injection of 20 mg/kg of cisplatin. Twenty nanomoles of PACAP38 were given intraperitoneally 1 hour before the injection of cisplatin and additional doses were given at 24 and 48 hours after the initial dose. The control group of mice was injected intraperitoneally with the same volume of saline as for the injections of cisplatin and PACAP38 on the same schedule. The mice were euthanized 24 hours after the final injection of PACAP38. Each value represents the mean plus/minus the standard error of four determinations. ***p<0.001 and **p<0.01 compared to the group treated only with cisplatin.
as §2, with “PACAP38. TNF-α was extracted from one kidney of each mouse and quantified with an enzyme-linked immunosorbent assay.” for “PACAP38.”
Male C57BL/6 mice were given a single intraperitoneal injection of 20 mg/kg of cisplatin. Twenty nanomoles of PACAP38 were given intraperitoneally 1 hour before the injection of cisplatin and additional doses were given at 24 and 48 hours after the initial dose. The control group of mice were injected intraperitoneally with the same volume of saline as for the injections of cisplatin and PACAP38 on the same schedule. The mice were euthanized 24 hours after the final injection of PACAP38, and the kidneys were removed and fixed in 10% formalin. The fixed sections were stained with hematoxylin and eosin. The sections of the kidneys from control mice show intact renal tubular epithelial cells and well-preserved brush border membranes. The kidneys from mice treated with cisplatin had extensive tubular damage, tubular dilations, intratubular debris, and intratubular casts. […] Tubular damage was more pronounced in the outer cortex in the cisplatin treated mice. The photomicrographs on the left side were made at a lower magnification (×160) than the photomicrographs on the right side (×320). The results described in FIGS. 5, 6, 7, and 8 were from the same experiment.
as §2, with “six” for “four”
as §2, with “The cytoprotective effect of PACAP38 against cisplatin-induced nephrotoxicity was also seen in a common in vivo model. Male” for “Male”, “PACAP38.” for “PACAP38. Each value represents the mean plus/minus the standard error of four determinations. ***p<0.001 and **p<0.01 compared to the group treated only with cisplatin.”

[5] = test system: Jurkat human T-lymphocyte leukemia cells; assay: Etoposide-induced apoptotic cell death of leukemia cells; type: cell-based
Method: The Jurkat human T-lymphocyte leukemia cells were cultured in RPMI 1640 medium supplemented with 10% non-inactivated fetal bovine serum. The effects of PACAP27 and PACAP38 on apoptotic cell death was assessed by the quantitative determination of cytoplasmic histone-associated DNA-fragmentation (mono- and oligonucleosomes) after exposure to etoposide for 48 hours. Each value represents the mean plus/minus the standard deviation of three determinations. **p<0.01 and *p<0.05 compared to the etoposide-treated (control) cells.

[6] = test system: light-chain immunoglobulin-secreting human myeloma cells; assay: Vincristine-induced apoptotic cell death of myeloma cells; type: cell-based
Method: as §1, with “PACAP38” for “PACAP38, and [Ala^22]PACAP38”, “vincristine” for “carmustine”, “four” for “three”, “vincristine-treated” for “carmustine-treated”

[7] = test system: HK-2 human kidney cells; assay: Doxorubicin-induced apoptotic cell death of human renal proximal tubule epithelial cells; type: cell-based; conditions: HK-2 cells, peptide added to the medium, FIG. 11
Method: The HK-2 human kidney cells were cultured in Keratinocyte-Serum Free Medium supplemented with recombinant epidermal growth factor and bovine pituitary extract. […] Each value represents the mean plus/minus the standard deviation of four determinations in three replicate experiments. **p<0.01 and *p<0.05 compared to the doxorubicin-treated (control) cells.
At the highest dose tested (10^−6 M), all three peptides reduced the apoptotic cell death of these epithelial cells by more than 60%.

## PACAP38
[1]; 16 pmol/hr or 160 pmol/hr i.v. for 6 days beginning 24 hours after occlusion
  reduction in the number of CA1 pyramidal cells at day 7 post-occlusion: significantly reversed
[1]; 16 pmol/hr or 160 pmol/hr i.v.
  side-effects during 6 days continuous infusion: no obvious side-effects
[2]
  relative potency as enhancer of carmustine-induced apoptotic cell death: more potent than [Ala^22]PACAP38
[2]; carmustine 48 hours, FIG. 17
  effect on carmustine-induced apoptotic cell death: enhancement
[2]; highest dose tested (10^−6 M)
  effect on carmustine-induced apoptotic cell death: significantly enhanced
[3]
  lowest dose with significant enhancement of thalidomide-induced apoptotic cell death: 10^−8 M
[3]; thalidomide 48 hours, FIG. 20
  effect on thalidomide-induced apoptotic cell death: dose-dependent enhancement
[4]; 20 nanomoles peptide i.p. 1 h before and at 24 and 48 h, ELISA, FIG. 8
  increase in TNF-α in the kidney: significantly reduced
[4]; 20 nanomoles peptide i.p. 1 h before and at 24 and 48 h, FIG. 6
  increase in serum creatinine: significantly reduced
[4]; 20 nanomoles peptide i.p. 1 h before and at 24 and 48 h, FIG. 7
  increase in blood urea nitrogen: significantly reduced
[4]; 20 nanomoles peptide i.p. 1 h before and at 24 and 48 h, FIG. 9
  morphology of the kidney (hematoxylin and eosin): relatively well preserved tubular morphology
[4]; FIG. 10
  relative potency as cytoprotectants against cisplatin-induced impairment of kidney function (serum creatinine): approximately equipotent
[5]; Jurkat cells, etoposide 48 hours, FIG. 15
  reduction in etoposide-induced apoptotic cell death: small reduction
[5]; Jurkat cells, highest dose tested 10^−6 M
  significance of the reduction of etoposide-induced apoptotic cell death: only significant at the highest dose
[5]; versus cisplatin (FIG. 3), doxorubicin (FIG. 11), bleomycin (FIG. 12)
  potency as cytoprotectant of kidney and lung epithelial cells relative to protection of T-lymphocyte leukemia cells against etoposide: about 100 fold
[6]
  lowest dose with significant enhancement of vincristine-induced apoptotic cell death: 10^−9 M
[6]; vincristine 48 hours, FIG. 18
  effect on vincristine-induced apoptotic cell death: dose-dependent enhancement
[7]
  reduction in doxorubicin-induced apoptotic cell death: significant dose-dependent reduction
